Experiments:
[1] = test system: KP4 cells; test: Small molecule inhibitor screen of KP4 cells in 2D monolayer and 3D spheroid cultures; type: cell-based, human; conditions: 2D monolayer vs 3D spheroid
Procedure: Cell viability assays were performed by treating cells with a dose titration (0.001 to 10 μM) or fixed dose (1 μM) of the various pharmacologic inhibitors for 72 hrs and measuring viability using CellTiter Glo (Promega). Bliss scores were calculated as described previously. (Borisy A A, Elliott P J, Hurst N W, Lee M S, Lehar J, Price E R, Systematic discovery of multicomponent therapeutics, Proceedings of the National Academy of Sciences of the United States of America, 2003; 100(13):7977-82, Epub 2003/06/12).
To compare how pancreatic cancer cells cultured in 2-dimensional (2D) and 3-dimensional (3D) cultures respond to various cancer therapeutic agents, we treated the KAS mutant PDAC cancer cell line KP4 with a panel of 203 small molecule inhibitors of cancer-relevant targets and known chemotherapeutics (Table 1).
For 3D cultures, described herein is a method to facilitate a relatively rapid “high-throughput” analysis. […] Their drug sensitivity pattern was also similar to previously described spheroids (FIGS. 28 & 29).

[2] = test system: KPP xenografts; type: in vivo; conditions: cobimetinib 5 mg/kg and/or ponatinib 30 mg/kg, PO, QD; for Tumor volume (last day): in mm³ (unit assumed)
Procedure: (§1) All animal studies were carried out in compliance with National Institutes of Health Guide for the Care and Use of Laboratory Animals. […] Two xenograft models were used: the human PDAC-derived cell line KP4 and cells derived from tumors isolated from KPP GEMM mice. 5×10^6 cells were subcutaneously implanted into the right flanks of immune-deficient mice (Charles River Laboratories) without using any Matrigel. […] Tumor volumes were measured using Ultra-Cal IV calipers at the indicated intervals. To appropriately analyze the repeated measurement of tumor volumes from the same animals over time, a mixed modeling approach was used. (Jose Pinheiro D B, Saikat DebRoy, Deepayan Sarkar, R Core team. Linear and Nonlinear mixed effects models. Package ‘nlme’2008). This approach addresses both repeated measurements and modest dropouts due to any non-treatment-related deaths of animals before the study end. Cubic regression splines were used to fit a non-linear profile to time courses of log2 tumor volume at each dose level. These non-linear profiles were then related to the dose within the mixed model.
(§2) To determine the uncertainty intervals (UIs) for % TGI, the fitted curve and the fitted covariance matrix were used to generate a random sample as an approximation to the distribution of % TGI. […] The reported UIs were the values for which 95% of the time the recalculated values of % TGI would fall in this region given the fitted model. The 2.5 and 97.5 percentiles of the simulated distribution were used as the upper and lower UIs. Tumor growth inhibition >60% was considered meaningful. (Wong H, Choo E F, Alicke B, Ding X, La H, McNamara E, Antitumor activity of targeted and cytotoxic agents in murine subcutaneous tumor models correlates with clinical response, Clinical Cancer Research: an official journal of the American Association for Cancer Research, 2012; 18(14):3846-55. Epub 2012/06/01).
(§3) Plotting was performed and generated using R, version 2.8.1 (R Development Core Team 2008; R Foundation for Statistical Computing; Vienna, Austria) and Excel, version 12.0.1 (Microsoft Corporation). Data were analyzed using R, version 2.8.1, and the mixed models were fit within R using the nlme package, version 3.1-89 (41).

[3] = test system: KP4 xenografts; type: in vivo
Procedure: as §1, §2, §3

[4] = test system: PDAC cell lines; test: Cell viability assay (CellTiter Glo) with Bliss analysis in PDAC cell lines, 2D and 3D; type: cell-based, human
Procedure: Cell viability assays were performed by treating cells with a dose titration (0.001 to 10 μM) or fixed dose (1 μM) of the various pharmacologic inhibitors for 72 hrs and measuring viability using CellTiter Glo (Promega). Bliss scores were calculated as described previously.

[5] = test system: serum growth factors and cytokines; test: Luminex assay / ELISA of plasma samples of KP4 xenograft mice; type: in vivo
[6] = test system: xenograft tumors; test: Histopathology, IHC/IF staining and immunoblotting of grafted tumors; type: in vivo, mice
Procedure: Cells were seeded in 10 cm dishes and treated with 1 μM of small molecule inhibitors for 24 hrs. Cell lysates were prepared in RIPA lysis buffer (Thermo Scientific) containing a protease inhibitor cocktail (Thermo Scientific), SDS-PAGE was performed and proteins were transferred to nitrocellulose membranes. Immunoblotting was performed using standard methods. Protein bands were quantified using ImageJ software. Primary antibodies: p-Erk, p-STAT3, p-S6, total-S6, p-PDGFRα, p-PDGFRβ, p-RSK3, cleaved PARP, Bcl-xL, Mcl, survivin, Rab11, p-Akt, β-Actin, GAPDH (Cell Signaling), total-STAT3, total-PDGFRα (Santa Cruz Biotechnology), p-EphA7 (Gene Tex) and p-EphA2/3, EphA2/5 (MyBioscource). Immunohistochemistry and immunofluorescence were performed on 4 μm thick sections cut from formalin-fixed paraffin-embedded cell pellets, whole tissue sections, and TMA blocks (US Biomax, Inc.). Slides were deparaffinized and antigen unmasking was performed on PT Module (Thermo Scientific) with Target Retrieval Solution (Dako). […] Antibody binding was detected using Vecstatin ABC Elite horseradish peroxidase (Vector Laboratories) or PowerVision Poly-HRP (Leica Biosystems) and metal-enhanced 3, 3′-diaminobenzidine (Pierce) for IHC stainings and PowerVision Poly-HRP (Leica Biosystems) along with TSA kits (Life Technologies) for immunofluorescence staining. […]

[7] = test system: IL-6 secretion; test: IL-6 secretion in 2D culture supernatants of PDAC cell lines; type: cell-based, human; conditions: multiple PDAC cell lines, 24 hrs
[8] = test system: PDGFRα, S6 and STAT3 activation; test: Western blot of signaling proteins in PDAC cells (2D and 3D); type: cell-based, human; conditions: KP4 cells
Procedure: Cells were seeded in 10 cm dishes and treated with 1 μM of small molecule inhibitors for 24 hrs. Cell lysates were prepared in RIPA lysis buffer (Thermo Scientific) containing a protease inhibitor cocktail (Thermo Scientific), SDS-PAGE was performed and proteins were transferred to nitrocellulose membranes. Immunoblotting was performed using standard methods. Protein bands were quantified using ImageJ software. Primary antibodies: p-Erk, p-STAT3, p-S6, total-S6, p-PDGFRα, p-PDGFRβ, p-RSK3, cleaved PARP, Bcl-xL, Mcl, survivin, Rab11, p-Akt, β-Actin, GAPDH (Cell Signaling), total-STAT3, total-PDGFRα (Santa Cruz Biotechnology), p-EphA7 (Gene Tex) and p-EphA2/3, EphA2/5 (MyBioscource).

[9] = cobimetinib 5 mg/kg and/or ponatinib 30 mg/kg, PO, QD

In the case of `CS(=O)(=O)N1CCN(Cc2cc3nc(-c4cccc5[nH]ncc45)nc(N4CCOCC4)c3s2)CC1` [GDC-0941], the “differential sensitivity of 3D versus 2D cultures” value (shortened to “differential sensitivity”) [1] is reported as “more effective on 3D cultures than the 2D cultures”.
In the case of `Cc1ccc(C(=O)Nc2ccc(CN3CCN(C)CC3)c(C(F)(F)F)c2)cc1C#Cc1cnc2cccnn12` [Ponatinib], the “TTP 2X (Time to Tumor Progression, 2X original volume)” value (from here on “TTP 2X”) [2] is reported as 7, the “Tumor volume (last day)” value [2] is reported as 1045 and the “effect on tumor growth (in words)” value [3] is reported as “ineffective as single agents”. The “TTP 2X” value [3, 9] was 8.5, the Tumor volume (last day) [3, 9] was 408 mm³ and the “effect on cell viability as single agents” value [4] was “no effect on cell viability”.
In the case of `O=C(NOC[C@H](O)CO)c1ccc(F)c(F)c1Nc1ccc(I)cc1F` [PD901], the “differential sensitivity” value [1] is reported as “more effective on 3D cultures than the 2D cultures”.
In the case of `O=C(NOCCO)c1ccc2cncn2c1Nc1ccc(I)cc1F` [GDC-0623], the “differential sensitivity” value [1] is reported as “more effective on 3D cultures than the 2D cultures”.
In the case of `Cn1cnc2c(F)c(Nc3ccc(Br)cc3Cl)c(C(=O)NOCCO)cc21` [AZD6244], the “differential sensitivity” value [1] is reported as “more effective on 3D cultures than the 2D cultures”.
In the case of `O=C(c1ccc(F)c(F)c1Nc1ccc(I)cc1F)N1CC(O)([C@@H]2CCCCN2)C1` [Cobimetinib], the “% TGI (AUC vs. Vehicle)” value [2] is reported as 31%, the “TTP 2X” value [2] is reported as 6.5 and the “Tumor volume (last day)” value [2] is reported as 917. The “effect on tumor growth (in words)” value [3] was “ineffective as single agents”, the “% TGI (AUC vs. Vehicle)” value [3, 9] was 70% and the “TTP 2X” value [3, 9] was 13. For the same compound, the Tumor volume (last day) [3, 9] was 532 mm³, the “serum growth factor and cytokine levels” value [5] was “Significantly elevated serum levels of PDGFα, PDGFβ, and increased levels of IL-6” and the “effect on cell viability as single agents” value [4] was “no effect on cell viability”. For the same compound, the “p-PDGFRα, p-STAT3 and pS6 in grafted tumors” value [6] was “induction”, the “secretion of IL-6” value [7] was “increased secretion of the IL-6 ligand” and the “activation of p-PDGFRα, p-STAT3 and p-S6 (western blot)” value [8] was “increased level of activation”. The “differential sensitivity” value [1] was “more effective on 3D cultures than the 2D cultures”.
For `Cc1c(CN2CCN(C(=O)[C@H](C)O)CC2)sc2c(N3CCOCC3)nc(-c3cnc(N)nc3)nc12` [GDC-0980], the “differential sensitivity” value [1] was “more effective on 3D cultures than the 2D cultures”.
